Assay type in all cases: in vivo, Drosophila
The subject of series [1] is mushroom body structure in dfmr1 null fly brain. The series is described as follows: Staining and analysis of mushroom body morphology. The note with it: for mushroom body defects of dfmr1 mutant adults (in words): 0- to 2-day-old adults developed on LF supplemented with drug at optimal viability dose; for brain structural abnormality (mushroom body formation) in treated dFmr1 flies (in words) / percentage of normal brains (mushroom body) after treatment: Example 2; for percentage of normal brains (mushroom body) after treatment: dFmr1 flies, 27% without treatment. An excerpt: A striking morphological phenotype of dfmr1 deficiency in Drosophila involves structural abnormalities of the mushroom body in the fly brain. The mushroom body, important for Drosophila learning and memory, is an axon-like fiber structure composed of three paired neuronal lobes (the α, β, and γ lobes). In dfmr1 null flies, the β lobes, which normally terminate at the midline cleft, often cross through the midline. In addition, dfmr1 null flies also have missing or misdirected α and β lobes, as well as truncated or over-branched lobes. […] To test whether compounds identified in the viability screen could rescue the mushroom body morphology, 0- to 2-day-old dfmr1 mutant adults were examined that developed on LF supplemented with four of the nine compounds identified above (GABA, nipecotic acid, creatinine, and isopilocarpine).
Brains from 0- to-2-day-old adults were dissected, fixed, and stained. Anti-Fascicilin II (ID4, Developmental Studies Hybridoma Bank) was used at 1:10 dilution and Alexa anti-mouse secondary antibody (Molecular probes) 1:100. Confocal microscopy was performed using a Leica Scanning laser confocal microscope. Neuronal lobe abnormalities were analyzed and scored by obtaining optical stacks of the α and β lobes as described.

The next series has as its system Futsch. The series is described as follows: Quantitative Western analysis of Futsch protein in fly head lysates. The note with it: flies raised on LF with drug at effective dosage. From the text:
FIG. 3A illustrates a representative Western blot showing Futsch expression in w^1118, dfmr1^3+/−, and dfmr1^3−/− head lysates. Flies were raised on LF with or without drug supplements using the effective dosages. Heads from 0- to 2-day old adult flies were used to prepare protein lysates. β-actin was used as a loading control.
FIG. 3B illustrates the quantification of relative Futsch protein level from multiple Western blots using Kodak Imaging System software. The quantifications were based on duplicate Western analyses obtained from triplicate collections of […] from two separate drug treatments (6 sets of samples total). The futsch levels were first normalized to β-actin levels, then plotted as the percentage of change of each treatment/genotype compared to w^1118 (no drug), which was set as 100%.
Additionally, it was tested whether the same four compounds could rescue the biochemical phenotype of Futsch over-expression that is associated with dfmr1 deficiency. The mRNA of Futsch is normally bound and translationally repressed by dFmrp. Thus, loss of dFmrp results in excess Futsch translation.
Quantitative Western analyses were performed. Briefly, 0- to 2-day-old adult Drosophila heads were obtained, and homogenized in lysis buffer (10 mM Tris (pH 7.5), 150 mM NaCl, 30 mM EDTA (pH 8.0), 0.5% Triton X-100, and 1× complete protease inhibitor (Boehringer Mannheim). 30 fly heads were collected per sample. 10 μg total protein lysates were subjected to SDS-PAGE electrophoresis on a 4%-20% gradient Tris-HCl gel (Bio-Rad). Monoclonal anti-22C10 against Futsch (1:500) was purchased from the Developmental Studies Hybridoma Bank (DSHB), University of Iowa. For the loading control, an antibody against […] (Abcam) was used at a final concentration of 0.8 μg/ml. The signals were quantified using the Kodak Imaging System software.

The test system of a further series is dfmr1 null embryos. The series is described as follows: Initial small molecule screen: pupae/adult recovery of dfmr1 null embryos on commercial food (CF). As to conditions: 12 null embryos per vial, CF supplemented with 40 μM compound, 25° C., 10 to 15 days. An excerpt: Since the rescue of dfmr1 null lethality is an easily scored phenotype, a relatively high throughput strategy was designed to screen chemical libraries for small molecules that can restore the viability of dfmr1 null flies raised on CF (FIG. 1D). In order to seed test vials with dfmr1 null embryos only, the dfmr1 mutation was balanced with a GFP-TM6C chromosome (w^1118; dfmr1^3/Kr: GFP, TM6C). This allowed sorting of the null dfmr1 mutants from other embryos by the absence of GFP fluorescence using a flow cytometry embryo sorter (COPAS SELECT). […]
The Spectrum Collection™ compound library was obtained from MicroSource Discovery Systems, Inc. Drugs used in larger quantities for confirmation and subsequent analysis were obtained from Sigma (St. Louis, Mo.) or Tocris-Cookson (UK). […]
(§1) For the initial screen, 12 dfmr13/dfmr13 (GFP−) embryos were placed in each well of a 96 well plate with CF+40 μM of individual drugs. 96-well plates were kept at 25° C. and the percentage of pupae and adults recovered was scored. […] Adult progeny were counted and the relative viability of homozygous null flies was scored as the percentage of viable adult progeny raised on CF+ drug compared to the progeny on LF alone.

For series [2], the system named is homozygous dfmr1-deficient flies. The series is described as follows: Fly viability assay: rescue of homozygous dfmr1 flies on CF (JAZMIX) plus drug. The note with it: for recovery of homozygous dFmr1 flies: 0% on JAZMIX food alone. The procedure:
In particular, embodiments of the present disclosure include methods of screening compounds using a drosophila (fruit fly) based compound screen to identify drug candidates for the treatment of FMRP-loss related disorders.
The homozygous embryos are placed into an appropriate container (e.g., a 96-well container) containing a food with a lethal amount of glutamate and with or without a compound from a library of drugs candidates. The embryos were incubated at certain conditions for a certain amount of time (e.g., at about 25° C. for about 10 days) to allow embryonic development. The efficacy of the drug candidate is determined by scoring the number of pupae formation or the emergence of adult flies after a certain time frame. Files or pupae that came out from food with a nonlethal amount of glutamate were used as positive control, and flies or pupae that came out from food with lethal amounts of glutamate without drugs were used as negative control.
The separated homozygous embryos are then transferred to a regular fly culture vials or a 96-well container (e.g., 20 embryos per well) containing food with a lethal amount of glutamate with or without the drug (e.g., 300 μl of pre-mixed food and the drug). The embryos were incubated at 25° C. for about 10 days to allow embryonic development. The formation of pupae or adult flies can be directly quantified by visual inspection. Efficacy of drugs is determined by scoring the number of pupae formation or the emergence of adult flies after 10 days. Additional details regarding the active compositions and disorders are described in the Examples below.
(§2) To determine the cause of the observed CF lethality of dfmr1-deficient flies, HPLC amino acid analyses was performed on aqueous extracts of CF and LF food preparations and noted that the CF contained 1.8-fold more glutamate than the LF (FIG. 4). Since this could result in excess glutamate signaling, exacerbating the consequences of dFmrp loss, it was next determined whether supplementing LF with additional glutamate could decrease the viability of dfmr1-deficient flies. […] Indeed, 10 μM MPEP added to the CF rescued the homozygous deficient flies to approximately 60% of their normal viability on LF (FIG. 1C).
Fifteen of those compounds, as well as the MPEP-positive control, recovered pupal development from at least 25% of the seeded embryos (FIG. 5, Table 1). Each of these top 15 compounds underwent further validation using a larger-scale viability assay. Each vial was seeded with 100 embryos from dfmr1 heterozygous crosses, and adult progeny of both homozygous and heterozygous genotypes were counted 10 days later. Nine of the 15 compounds were validated and, for each of these, a dose-response analysis was performed to optimize the dosage (FIG. 5, Table 1). Using the optimal viability dose for each validated compound, it was explored whether other established phenotypes of dfmr1 deficiency are influenced by a selection of these compounds.
as §1

In series [3] the test system is dfmr1 homozygous null progeny. The series is described as follows: Viability of flies on laboratory food (LF) supplemented with glutamate. The note with it: glutamate added to LF, p<0.005. How it is done:
FIG. 1B illustrates dfmr1-deficient flies raised on LF are sensitive to supplemented glutamate. Embryos of w^1118, dfmr1^3+/− and dfmr1^3−/− were allowed to develop on LF supplemented with additional glutamate. Relative viability was calculated within each genotype as the percentage of viable adult progeny raised on LF supplemented with glutamate compared to progeny raised on LF alone. (For w^1118 only: anything above 100% was indicated as 100%). (Error bar indicate SEM; *=P<0.005).
as §2

Regarding `NCCCC(=O)O` [GABA], in series [1], the “mushroom body defects of dfmr1 mutant adults (in words)” value (shortened to “mushroom body defects”) was “significantly improved”. The “elevated Futsch protein level in dfmr1 null flies (in words)” value (“elevated Futsch protein level” below) with Futsch is given as “did not significantly influence”.
For `Cc1cccc(C#Cc2ccccc2)n1` [MPEP], the “mushroom body defects” value in series [1] was “rescued”. Also, in the series on Futsch, the “elevated Futsch protein level” value was “significantly reduced”. For the same compound, in the series with dfmr1 null embryos, the “pupal development recovered, percentage of the seeded embryos” value is “at least 25%”. Further, in series [2] (10 μM MPEP added to CF), the “viability of homozygous deficient flies relative to their normal viability on LF” value is recorded as “approximately 60%”. Moreover, the “dfmr1^3−/− viability on CF (in words)” value in series [2] (CF supplemented with MPEP (10 μM), FIG. 1C, P<0.005) is on record as “improved”.
For the compound `CC[C@@H]1C(=O)OC[C@@H]1Cc1cncn1C` [Pilocarpine nitrate], in series [1], the “brain structural abnormality (mushroom body formation) in treated dFmr1 flies (in words)” value is “significant suppression” and the “percentage of normal brains (mushroom body) after treatment” value (shortened to “percentage of normal brains”) came out at 79%. Also, the “recovery of homozygous dFmr1 flies” value in series [2] (5 microM in JAZMIX food) was 88.5%.
Take `CN1CC(=O)NC1=N` [creatinine]: the “percentage of normal brains” value in series [1] is given as 85%. Also, in series [2] (40 microM in JAZMIX food), the “recovery of homozygous dFmr1 flies” value is given as 123.2%.
Consider `N[C@@H](CCC(=O)O)C(=O)O` [glutamate], for which the “viability of dfmr1 homozygous null progeny” value in series [3] was “dose-dependent decline”.
As to `CC[C@H]1C(=O)OC[C@@H]1Cc1cncn1C` [isopilocarpine], the “mushroom body defects” value in series [1] is “significantly improved”. Moreover, in the series on Futsch, the “elevated Futsch protein level” value is reported as “completely rescued”.
For `O=C(O)C1CCCNC1` (centres unmarked) [nipecotic acid], in series [1], the “mushroom body defects” value is on record as “significantly improved”, the “brain structural abnormality (mushroom body formation) in treated dFmr1 flies (in words)” value was “significant suppression” and the “percentage of normal brains” value is given as 73%. Moreover, in the series with Futsch, the “elevated Futsch protein level” value is “did not significantly influence”. The “recovery of homozygous dFmr1 flies” value in series [2] (40 microM in JAZMIX food) stood at 84%.

Values taken from patent US20150174112A1, “COMPOSITIONS FOR TREATING FRAGILE X AND OTHER DISORDERS METHODS OF USE THEREOF, AND SCREENING FOR COMPOUNDS FOR FRAGILE X AND OTHER DISORDERS” (EMORY UNIVERSITY, priority 2005, published 2015).
